Results as given in EP1247803A2, “Indolinone compounds suitable for modulation of protein kinases” (Sugen, Inc., priority 1996, dated 1998).

How the values were obtained:
[1] = molecular target: PDGF-R (Homo sapiens, UniProt P09619); assay: PDGF-R ELISA; type: cell-based
Source text: A PDGF-R ELISA is described in International Patent Publication No. WO 96/40116, published December 19, 1996 by Tang et al.

[2] = molecular target: T1, EGFR (Homo sapiens, UniProt P00533); assay: EGFR ELISA assay (in vitro kinase activity, EGFR captured from A431 cell lysate); type: biochemical; parameters: concentration or dose not given beside the values
T1 construct: Add 7 ug A431 cell lysate per well (EGFR source); endogenous in cells; host or cells: A431
T1 sequence (P00533 25-1210): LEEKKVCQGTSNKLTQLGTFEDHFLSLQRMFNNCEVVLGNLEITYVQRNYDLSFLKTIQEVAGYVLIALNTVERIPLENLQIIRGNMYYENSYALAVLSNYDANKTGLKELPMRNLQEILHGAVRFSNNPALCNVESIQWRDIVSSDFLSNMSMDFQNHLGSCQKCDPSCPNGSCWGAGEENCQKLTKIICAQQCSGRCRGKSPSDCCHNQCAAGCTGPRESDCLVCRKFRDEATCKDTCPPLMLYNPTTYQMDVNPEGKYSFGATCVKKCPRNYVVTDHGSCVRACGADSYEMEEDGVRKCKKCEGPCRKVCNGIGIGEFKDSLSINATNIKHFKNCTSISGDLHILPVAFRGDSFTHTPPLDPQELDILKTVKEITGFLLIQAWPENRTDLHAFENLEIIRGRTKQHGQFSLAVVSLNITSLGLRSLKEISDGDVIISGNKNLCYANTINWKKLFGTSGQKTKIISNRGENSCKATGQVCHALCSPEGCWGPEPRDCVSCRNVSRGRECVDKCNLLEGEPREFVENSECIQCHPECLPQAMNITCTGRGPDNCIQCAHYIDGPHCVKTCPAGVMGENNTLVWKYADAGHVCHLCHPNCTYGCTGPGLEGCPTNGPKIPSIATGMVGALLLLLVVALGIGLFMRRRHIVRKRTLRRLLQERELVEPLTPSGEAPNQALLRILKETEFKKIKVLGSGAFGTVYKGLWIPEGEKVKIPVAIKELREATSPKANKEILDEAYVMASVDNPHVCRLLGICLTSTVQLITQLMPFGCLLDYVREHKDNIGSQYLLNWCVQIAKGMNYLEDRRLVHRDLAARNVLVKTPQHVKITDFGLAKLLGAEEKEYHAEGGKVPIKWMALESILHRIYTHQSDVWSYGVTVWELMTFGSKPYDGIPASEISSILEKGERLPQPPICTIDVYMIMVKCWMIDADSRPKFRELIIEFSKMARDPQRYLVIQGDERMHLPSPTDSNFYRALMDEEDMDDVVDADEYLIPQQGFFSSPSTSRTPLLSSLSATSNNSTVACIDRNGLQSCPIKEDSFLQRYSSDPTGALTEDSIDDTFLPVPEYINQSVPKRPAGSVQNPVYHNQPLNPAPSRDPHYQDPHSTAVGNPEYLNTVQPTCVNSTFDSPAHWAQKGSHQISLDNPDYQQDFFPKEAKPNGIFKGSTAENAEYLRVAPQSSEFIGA
Method in brief: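 EGFR from A431 lysate was captured on anti-EGFR antibody-coated plates and preincubated with compounds for 30 min. Autophosphorylation ran 5 min with 3 uM ATP and 5 mM MnCl2 (final), stopped with 20 mM EDTA. Phosphotyrosine was detected by anti-pTyr ELISA with ABTS/H2O2, read at 410 nm.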

PDGF-R, sequence (P09619 33-1106, species assumed): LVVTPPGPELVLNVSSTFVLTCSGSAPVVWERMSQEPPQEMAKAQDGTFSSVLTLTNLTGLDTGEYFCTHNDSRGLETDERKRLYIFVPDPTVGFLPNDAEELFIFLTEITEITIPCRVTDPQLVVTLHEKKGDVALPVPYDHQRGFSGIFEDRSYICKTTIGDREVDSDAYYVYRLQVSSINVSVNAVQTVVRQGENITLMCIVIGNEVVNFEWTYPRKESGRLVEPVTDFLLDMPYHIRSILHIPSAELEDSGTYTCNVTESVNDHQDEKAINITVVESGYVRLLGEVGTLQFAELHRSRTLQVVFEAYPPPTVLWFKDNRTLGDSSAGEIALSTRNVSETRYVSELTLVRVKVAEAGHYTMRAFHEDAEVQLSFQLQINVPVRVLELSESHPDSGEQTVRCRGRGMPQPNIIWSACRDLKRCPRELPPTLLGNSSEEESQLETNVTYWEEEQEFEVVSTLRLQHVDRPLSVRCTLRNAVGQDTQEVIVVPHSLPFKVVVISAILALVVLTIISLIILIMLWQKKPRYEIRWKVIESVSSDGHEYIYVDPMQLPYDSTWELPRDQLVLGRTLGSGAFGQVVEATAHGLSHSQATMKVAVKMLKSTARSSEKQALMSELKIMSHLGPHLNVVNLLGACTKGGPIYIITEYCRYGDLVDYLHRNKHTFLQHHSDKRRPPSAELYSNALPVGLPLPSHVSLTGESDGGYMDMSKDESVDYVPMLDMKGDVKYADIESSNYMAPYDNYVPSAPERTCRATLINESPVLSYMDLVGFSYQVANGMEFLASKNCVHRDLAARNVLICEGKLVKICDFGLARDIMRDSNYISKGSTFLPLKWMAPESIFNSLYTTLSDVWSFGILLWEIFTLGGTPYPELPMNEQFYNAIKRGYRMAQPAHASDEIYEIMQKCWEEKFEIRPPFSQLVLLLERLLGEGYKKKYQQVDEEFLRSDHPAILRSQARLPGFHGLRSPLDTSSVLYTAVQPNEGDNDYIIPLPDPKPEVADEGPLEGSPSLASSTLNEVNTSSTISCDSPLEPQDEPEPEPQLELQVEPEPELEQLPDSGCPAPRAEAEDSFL

SMILES	PDGF Kinase %Inhibition [1]	Biochem EGFR %Inhibition [2]
CNS(=O)(=O)c1ccc2c(c1)C(=Cc1cc(O)ccc1O)C(=O)N2 [10727/D10]	9.4%	86.2%
CNS(=O)(=O)c1ccc2c(c1)C(=Cc1coc3ccccc3c1=O)C(=O)N2 [10727/D07]	-14.7%	10.5%
CNS(=O)(=O)c1ccc2c(c1)C(=Cc1ccccc1Sc1ccc(Cl)cc1)C(=O)N2 [10727/D05]	-0.1%	3.4%
O=C1Nc2ccc(S(=O)(=O)Nc3ccc(C(F)(F)F)cc3)cc2C1=Cc1cc2c(cc1Cl)OCO2 [10727/E06]	9.4%	-9.3%
O=C1Nc2ccc(S(=O)(=O)N3CCOCC3)cc2C1=Cc1cc(Cl)cc(Br)c1O [10727/F04]	-10.3%	17.9%
CCN(CC)c1ccc(C=C2C(=O)Nc3ccc(S(=O)(=O)Nc4ccc(C(F)(F)F)cc4)cc32)cc1 [10727/E02]	-6.7%	22.4%
CNS(=O)(=O)c1ccc2c(c1)C(=Cc1cc(OC)cc(OC)c1)C(=O)N2 [10728/D04]	26.7%	-1.1%
O=C1Nc2ccc(S(=O)(=O)N3CCOCC3)cc2C1=Cc1cc2c(cc1Cl)OCO2 [10727/F06]	8.6%	4.9%
COc1cc(C=C2C(=O)Nc3ccc(I)cc32)cc2c1OCO2 [10728/B11]	-12.4%	48.2%
N#Cc1ccc(C=C2C(=O)Nc3ccc(S(=O)(=O)Nc4ccc(C(F)(F)F)cc4)cc32)cc1 [10727/E09]	15.9%	15.1%
O=C1Nc2ccc(S(=O)(=O)N3CCOCC3)cc2C1=Cc1coc2ccccc2c1=O [10727/F07]	2.1%	-8.9%
COc1cccc(OC)c1C=C1C(=O)Nc2ccc(I)cc21 [10728/B03]	10.3%	-36.6%
COc1cc(N(C)C)ccc1C=C1C(=O)Nc2c(Br)cc(Br)cc21 [10728/A05]	4.5%	17.7%
COc1cc(C=C2C(=O)Nc3c(Br)cc(Br)cc32)cc(OC)c1 [10728/A04]	15.6%	28.0%
O=C1Nc2ccc(S(=O)(=O)N3CCOCC3)cc2C1=Cc1cc(O)ccc1O [10727/F10]	9.4%	74.1%
O=C1Nc2c(Br)cc(Br)cc2C1=Cc1ccc2c(c1)Cc1ccccc1-2 [10728/A06]	-3.1%	17.2%
O=C1Nc2ccc(CCCl)cc2C1=Cc1coc2ccccc2c1=O [10727/G07]	-24.1%	5.4%
CNS(=O)(=O)c1ccc2c(c1)C(=Cc1cc3c(cc1Cl)OCO3)C(=O)N2 [10727/D06]	10.8%	8.6%
COc1cccc(OC)c1C=C1C(=O)Nc2ccc(Br)c(C)c21 [10728/C03]	24.9%	9.7%
